# “Also recorded” adds a separate entry of the source. Like-named read-outs stand apart in the source and are kept apart here.
# How the values were obtained:
# [1] = Phase 1 open-label drug interaction study: effect of ketoconazole on the pharmacokinetics of NBI-98854 in healthy subjects; type: in vivo, human; conditions: for half-life: read-out: t1/2 Mean (SD) (converted); for CL/F Mean (SD): analyte NBI-98854; for AUC(0-inf): read-out: AUC0-∞ Mean (SD); for Cmax: read-out: Cmax Mean (SD)
# Protocol: All subjects received the same treatment. […] Subjects were given meals upon completion of study assessments/dosing and at regular meal times during their stay in the research unit. […] Blood specimens to determine ketoconazole plasma concentrations were collected predose through Day 9. Safety and tolerability was assessed through Day 10. […] The tmax was analyzed using non-parametric methods. […] Safety data were summarized using descriptive statistics.
# human VMAT1 transporter = biological target: T1, human VMAT1 transporter (Homo sapiens, UniProt P54219); experiment: Uptake in cells expressing VMAT1; type: cell-based; conditions: concentrations up to 10 μM
# T1 construct: expressed in transfected cells
# T1 sequence (P54219 1-525): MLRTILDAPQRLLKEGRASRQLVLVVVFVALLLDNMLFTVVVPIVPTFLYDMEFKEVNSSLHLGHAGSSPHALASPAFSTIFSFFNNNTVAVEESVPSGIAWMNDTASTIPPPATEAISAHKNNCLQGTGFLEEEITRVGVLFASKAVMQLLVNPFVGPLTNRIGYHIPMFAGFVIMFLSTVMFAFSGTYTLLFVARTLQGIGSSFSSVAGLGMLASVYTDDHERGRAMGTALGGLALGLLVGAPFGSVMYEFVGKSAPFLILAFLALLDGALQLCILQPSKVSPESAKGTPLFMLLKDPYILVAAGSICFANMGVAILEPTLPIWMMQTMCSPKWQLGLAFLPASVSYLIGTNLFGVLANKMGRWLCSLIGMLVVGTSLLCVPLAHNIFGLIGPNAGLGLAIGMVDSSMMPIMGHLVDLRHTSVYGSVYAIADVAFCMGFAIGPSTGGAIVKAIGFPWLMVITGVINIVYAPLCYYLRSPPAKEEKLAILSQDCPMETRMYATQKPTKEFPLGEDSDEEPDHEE
# [2] = system: more than 80 targets (GPCRs, cell-surface monoamine transporters, ion channels including HERG); experiment: Cerep multi-target activity screen; conditions: broad panel screen
# [3] = Safety and tolerability in the Phase 1 ketoconazole interaction study; type: in vivo; conditions: for Subjects with TEAE: Constipation / Subjects with TEAE: Dizziness postural / Subjects with TEAE: Gastrointestinal Disorders / Subjects with TEAE: Headache / Subjects with TEAE: Injury, Poisoning and Procedural Complications / Subjects with TEAE: Nausea / Subjects with TEAE: Nervous System Disorders / Subjects with TEAE: Procedural dizziness / Subjects with treatment-emergent adverse event: Overall: N = 24
# Protocol: This was a Phase 1, single-center, open-label, drug interaction study conducted in 24 healthy male and female subjects.
# All subjects received the same treatment. Subjects received a single dose of 50 mg NBI-98854 on Days 1 and 6 at approximately 0800 hours. In addition, subjects received 200 mg ketoconazole twice daily (bid) on Days 5 through 9 at approximately 0800 and 2000 hours. Subjects were required to fast overnight from approximately 10 hours before until 4 hours after NBI-98854 dose on Days 1 and 6. Subjects were given meals upon completion of study assessments/dosing and at regular meal times during their stay in the research unit.
# TEAEs are summarized below. There were no pretreatment AEs. […] Five subjects (20.8%) experienced 6 AEs during the study; all AEs occurred after the initial treatment with NBI-98854 alone. […] The only AE that occurred in >1 subject was headache (2 subjects, 8.3%). […] Two events were considered possibly related to study drug, 1 event of headache and the event of dizziness postural. The other event of headache was considered unlikely related to study drug.
# [4] = both sexes, human, oral, analyte NBI-98854 in plasma, NBI-98854 (50 mg) alone, N = 24
# [5] = both sexes, human, oral, analyte NBI-98854 in plasma, NBI-98854 (80 mg) + Ketoconazole (200 mg), N = 24
# [6] = NBI-98854 (50 mg) + Ketoconazole (200 mg)
structure (smiles),measurement,setting,value
"CC(=O)N1CCN(c2ccc(OCC3COC(Cn4ccnc4)(c4ccc(Cl)cc4Cl)O3)cc2)CC1 (centres unmarked) [Ketoconazole, ketoconazole, reference compound]",concentration at 1 h,"[1]; both sexes, human, plasma, oral, 200 mg ketoconazole bid, Days 5 to 9 at 1 hour postdose, read-out: Mean plasma concentrations of ketoconazole",1640 to 5180 ng/mL
"COc1cc2c(cc1OC)[C@H]1C[C@@H](O)[C@H](CC(C)C)CN1CC2 [NBI-98782, (2R, 3R,11bR)-3-isobutyl-9,10-dimethoxy-1,3,4,6,7,11b-hexahydro-2H-pyrido[2,1-a]isoquinolin-2-ol]",inhibition of uptake through VMAT1,"human VMAT1 transporter; listed as R,R,R-DHTBZ",no significant inhibitory activity; also recorded: no significant effect
same,half-life,"[1]; both sexes, human, plasma, oral, 50 mg",18 h
same,"affinity for more than 80 binding sites, including receptors, monoamine transporters, and ion channels",[2],little to no affinity
"COc1cc2c(cc1OC)[C@H]1C[C@@H](OC(=O)[C@@H](N)C(C)C)[C@H](CC(C)C)CN1CC2 [NBI-98854, (S)-2-amino-3-methyl-butyric acid (2R, 3R,11bR)-3-isobutyl-9,10-dimethoxy-1,3,4,6,7,11b-hexahydro-2H-pyrido[2,1-a]isoquinolin-2-yl ester]",inhibition of uptake through VMAT1,human VMAT1 transporter; listed as VBZ,no significant inhibitory activity; also recorded: no significant effect
same,CL/F Mean (SD),"[1]; NBI-98854 (50 mg) alone, N = 24",16.3 (5.94) L/hr
same,CL/F Mean (SD),"[1]; NBI-98854 (80 mg) + Ketoconazole (200 mg), N = 24",7.96 (2.75) L/hr
same,Tlag Mean (SD),"[1]; analyte NBI-98854 in plasma, NBI-98854 (50 mg) alone, N = 24",0.11 (0.13) hours
same,Tlag Mean (SD),"[1]; analyte NBI-98854 in plasma, NBI-98854 (80 mg) + Ketoconazole (200 mg), N = 24",0.02 (0.07) hours
same,AUC(0-inf),[1]; [4],3470 ng·h/mL
same,Cmax,[1]; [4],425 ng/mL
same,AUC(0-inf),[1]; [5],7340 ng·h/mL
same,Cmax,[1]; [5],624 ng/mL
same,MRT,"[1]; both sexes, human, oral, analyte NBI-98854 in plasma, NBI-98854 (80 mg) + Ketoconazole (200 mg), N = 24, read-out: MRT Mean (SD)",22 h
same,half-life,[1]; [5],20 h
same,AUC(0-t),"[1]; both sexes, human, plasma, oral, 50 mg, analyte NBI-98854 in plasma, NBI-98854 (50 mg) alone, N = 24, read-out: AUC0-24 Mean (SD)",2580 ng·h/mL
same,AUC(0-t),"[1]; both sexes, human, plasma, oral, 50 mg, analyte NBI-98854 in plasma, NBI-98854 (50 mg) alone, N = 24, read-out: AUC0-tlast Mean (SD)",3420 ng·h/mL
same,AUC(0-t),"[1]; both sexes, human, plasma, oral, analyte NBI-98854 in plasma, NBI-98854 (80 mg) + Ketoconazole (200 mg), N = 24, read-out: AUC0-24 Mean (SD)",4820 ng·h/mL
same,AUC(0-t),"[1]; both sexes, human, plasma, oral, analyte NBI-98854 in plasma, NBI-98854 (80 mg) + Ketoconazole (200 mg), N = 24, read-out: AUC0-tlast Mean (SD)",7100 ng·h/mL
same,"affinity for more than 80 binding sites, including receptors, monoamine transporters, and ion channels",[2],little to no affinity
same,Subjects with headache (only AE in >1 subject),[3]; 2 subjects,8.3%
same,Subjects with TEAE: Constipation,[3]; [6],"0 n, %"
same,Subjects with TEAE: Dizziness postural,[3]; [6],"0 n, %"
same,Subjects with TEAE: Gastrointestinal Disorders,[3]; [6],"0 n, %"
same,Subjects with TEAE: Headache,[3]; [6],"0 n, %"
same,"Subjects with TEAE: Injury, Poisoning and Procedural Complications",[3]; [6],"0 n, %"
same,Subjects with TEAE: Nausea,[3]; [6],"0 n, %"
same,Subjects with TEAE: Nervous System Disorders,[3]; [6],"0 n, %"
same,Subjects with TEAE: Procedural dizziness,[3]; [6],"0 n, %"
same,Subjects with treatment-emergent adverse event: Overall,[3]; [6],"0 n, %"
same,Subjects with TEAE: Constipation,[3]; NBI-98854 (50 mg),"1 (4.2) n, %"
same,Subjects with TEAE: Dizziness postural,[3]; NBI-98854 (50 mg),"1 (4.2) n, %"
same,Subjects with TEAE: Gastrointestinal Disorders,[3]; NBI-98854 (50 mg),"2 (8.3) n, %"
same,Subjects with TEAE: Headache,[3]; NBI-98854 (50 mg),"2 (8.3) n, %"
same,"Subjects with TEAE: Injury, Poisoning and Procedural Complications",[3]; NBI-98854 (50 mg),"1 (4.2) n, %"
same,Subjects with TEAE: Nausea,[3]; NBI-98854 (50 mg),"1 (4.2) n, %"
same,Subjects with TEAE: Nervous System Disorders,[3]; NBI-98854 (50 mg),"3 (12.5) n, %"
same,Subjects with TEAE: Procedural dizziness,[3]; NBI-98854 (50 mg),"1 (4.2) n, %"
same,Subjects with treatment-emergent adverse event: Overall,[3]; NBI-98854 (50 mg),"5 (20.8) n, %"
same,Tolerability,[3]; administered alone and concomitantly with ketoconazole in healthy volunteers,well tolerated
same,Subjects who experienced AEs during the study,"[3]; all AEs after the initial treatment with NBI-98854 alone, onset Day 1 or 2, five subjects, 6 AEs",20.8%
same,12-lead ECGs,[3]; during the study,no abnormal ECGs that were assessed as clinically significant
same,Body weight changes,[3]; during the study,no important changes in body weight
same,Physical examination findings,[3]; during the study,No abnormal physical examination findings
same,Vital signs including orthostatic changes,[3]; postdose,No clinically relevant postdose mean vital signs changes
same,"Clinical laboratory values (hematology, serum chemistry, urinalysis)",[3]; pre- and postdose,no results considered clinically significant
same,"Deaths, SAEs, discontinuations due to an AE",[3]; whole study,"no deaths, SAEs, or discontinuations due to an AE"
same,Intensity of AEs,[3]; whole study,mild in intensity
"COc1cc2c(cc1OC)C1CC(=O)C(CC(C)C)CN1CC2 (centres unmarked) [TBZ, Tetrabenazine, reference compound]",inhibition of uptake through VMAT1,human VMAT1 transporter,no significant inhibitory activity; also recorded: no significant effect
"COC(=O)[C@H]1[C@H]2C[C@@H]3c4[nH]c5cc(OC)ccc5c4CCN3C[C@H]2C[C@@H](OC(=O)c2cc(OC)c(OC)c(OC)c2)[C@@H]1OC [reserpine, reference compound]",inhibition of uptake through VMAT1,human VMAT1 transporter,substantially inhibited uptake through VMAT1

# Source: US20200093808A1, “Methods for the Administration of Certain VMAT2 Inhibitors” (Neurocrine Biosciences, Inc., priority 2017, published 2020)
